Several values for one entry are separate records, joined by “and”; a condition that tells them apart may be missing. Equal entries are not always repeated.
Experiments:
[1] = system: patients with multiple sclerosis; test: MS-F203 Phase 3 double-blind placebo-controlled study; type: in vivo, human; conditions: 10 mg b.i.d.
Description: A three stage, stepwise analysis based on this variable was used to establish a positive outcome on the primary endpoint and to establish its clinical meaningfulness with respect to overall walking ability. […] The second step was to register a significant improvement in MSWS-12 score for the Timed-Walk Responders when compared to Timed-Walk Non-Responders. The third step was to confirm maintenance of effect by testing whether those patients who responded to 4-aminopyridine-SR on the T25FW would still register a significant improvement in walking speed relative to placebo-treated patients at the last observed double-blind visit (i.e., the change from baseline in walking speed at the double-blind endpoint). FIG. 47 depicts walking speed improvements found in the MS-F203 study: In FIG. 47, the two graphs show the average change in walking speed from baseline at each of the four visits over the 3 months of double blind treatment. […] There was no indication of a loss of efficacy over, e.g., 12 weeks, 13 weeks, 14 weeks, 3 months of treatment in this study. The MS-F203 study established that the improvement in walking speed seen in treated Timed Walk Responders was maintained over, e.g., 12 weeks, 13 weeks, 14 weeks, 3 months of treatment. The enxtention data herein established that periods greater than those of this study were able to be effeicaious, thus as a durable and chronic therapy. […]

[2] = system: patients with multiple sclerosis; test: MS-F204 Phase 3 double-blind placebo-controlled study
Method: Each of two Phase 3 studies (MS-F203 and MS-F204) was a parallel group, randomized, double-blind study comparing 4-aminopyridine-SR 10 mg b.i.d. with placebo. […] The 12-item Multiple Sclerosis Walking Scale and the Subject Global Impression and Clinician Global Impression were used to validate the clinical meaningfulness of the Timed-Walk response criterion. Secondary efficacy variables included walking speed, Lower Extremity Manual Muscle Test (LEMMT) score and the Ashworth spasticity score, the latter two averaged across eight and six lower extremity muscle groups, respectively. Duration of double-blind treatment on which efficacy was based was 14 weeks in the first study and 8 weeks in the second study. A two-week single blind placebo run-in period preceded the double-blind period.
In the MS-F204 study, the primary efficacy variable was also Responder status, based on consistent improvement in walking speed on the T25FW. A Timed-Walk Responder was defined as a patient with a faster walking speed for at least three of the first four double-blind visits as compared to the maximum walking speed for any of the pre-treatment visits and the post-treatment visit.
The secondary efficacy variable was average change from baseline in LEMMT score during the double-blind period, comparing 4-aminopyridine-treated Timed-Walk Responders and Non-Responders separately against the placebo-treated group. Other measures, the MSWS-12, SGI, CGI and Ashworth score, were included only for the purposes of a pooled analysis and comparison with the results of the other two trials.
This study in this Example was a 39 center, double-blind trial in patients with definite multiple sclerosis of any course type. Participants were randomized to 9 weeks of treatment with 4-aminopyridine (10 mg twice daily; n=120) or placebo (n=119). Response was defined as consistent improvement on the Timed 25-Foot Walk, with percentage of Timed Walk Responders (TWR) in each treatment group as the primary outcome. The last on-treatment visit provided data from 8-12 h post-dose, to examine maintenance of effect.
Study Design. This was a randomized, double-blind, placebo-controlled trial, as depicted in FIG. 14. Patients underwent screening without receiving any study medication and eligible patients returned one week later (Visit 0, see FIG. 14). Patients then entered a two-week, single-blind, placebo run-in period; Visit 1 occurred at the end of the first week of placebo run-in and Visit 2 at the end of the second week. Patients were instructed to take one blinded tablet (supplied in appropriate quantities at each clinic visit) every 12 hours during the treatment phase.
At Visit 2, patients were randomized equally to one of two treatment groups, sustained release 4-aminopyridine (4-aminopyridine-SR, 10 mg twice daily) or placebo, using a predetermined, computer-generated randomization schedule, blocked and stratified by treatment-site and pre-numbered treatment kits. Independent statistical, packaging and distribution contractors were used to maintain the blind for all other personnel.
Following randomization, patients returned every two weeks for evaluation at Visits 3-6. The patients were then instructed to return in one week for Visit 7 and to arrange the timing of their last dose of study medication such that the clinic visit would allow for assessments to be made between 10 and 12 hours after this last dose was taken. Following Visit 7, patients began a two-week period of no treatment, returning for follow-up assessments at Visit 8.

[3] = human, in vivo, po, 10 mg

Nc1ccncc1 [4-aminopyridine]
improvement in walking speed across the treatment period ([1]; Timed Walk Non-responders): approximately 7%
average increase in walking speed over the treatment period compared to baseline ([1]; Timed Walk Responders): approximately 25%
Mantel-Haenszel Odds Ratio for Timed Walk Response vs placebo ([2]; 10 mg b.i.d.): 8.14
Timed-Walk Responder rate ([2]; 10 mg b.i.d.): 42.9%
plasma concentration below which there is a marked reduction in walking speed improvement ([2]; FIG. 27): below 13 ng/mL
plasma concentration below which there is a reduction in walking speed improvement ([2]; FIG. 27): below 15 ng/mL
average change from baseline in walking speed (Visits 3-6) ([2]; Timed Walk Non-Responders): 0.12 ft/sec
average improvement in walking speed from baseline, double-blind efficacy period (Visits 3-6) ([2]; Timed Walk Non-responders, 10 mg b.i.d.): 6.0%
average change from baseline in walking speed (Visits 3-6) ([2]; Timed Walk Responders): 0.51 ft/sec
improvement from baseline walking speed at Visit 7, first evaluation (last on-treatment visit) ([2]; Timed Walk Responders): 25.7%
average improvement in walking speed from baseline, double-blind efficacy period (Visits 3-6) ([2]; Timed Walk Responders, 10 mg b.i.d.): 24.7% and 25%
mean improvement in walking speed at Visit 7 ([2]; Timed Walk Responders, 9-10 h post dose): 25.5%
mean improvement in walking speed at Visit 7 ([2]; Timed Walk Responders, 10-11 h post dose): 25.3%
mean improvement in walking speed at Visit 7 ([2]; Timed Walk Responders, 11-12 h post dose): 20.1% and 20%
reduction of average plasma concentration at the first assessment at Visit 7 ([2]; human, in vivo, 10 mg b.i.d.): approximately 25%
time of Cmax after dose administration [3]: approximately 1.1 hours
